Where a SMILES comes first, the peptide text is derived from it. Bridges are numbered along the chain shown (N, C = ends). Where no end group is shown, it is not given here. [ ]: non-standard residue; d: D form. PEG20 = NCCOCCOCCOCCOCCOCCOCCOCCOCCOCCOCCOCCOCCOCCOCCOCCOCCOCCOCCOCCOCCC(=O)O
Molecular target: T1, Fc region of trastuzumab (Homo sapiens, UniProt P01857)
T1 construct: made in house; host or cells: recombinant CHO cell lines
Test: Competitive FP binding assay against Fc-III-FAM
Conditions: for binding to the Fc region of trastuzumab (in words): competitive FP against Fc-III-FAM
Protocol: The competitive FP measurements were performed on SpectraMax Paradigm Multi-Mode Detection Platform (Molecular Devices) in flat-bottom 384-well Corning microplates (Merck KGaA), using excitation and emission wavelengths of 485 nm and 535 nm, respectively. The acquisition time was 700 milliseconds and the read height was 1 mm. All reagents used in the assay were diluted in PBS containing 0.05% Tween 20.
The mixture was incubated at 27° C. for 15 min and the fluorescence signal was red on a Spectramax Paradigm. All sample preparations were done in PBS pH 7.4 or 7.0 containing 0.05% Tween. Each experiment was performed in triplicate.

Row | Molecule | IC50 [µM] | binding to the Fc region of trastuzumab (in words)
1 | CC(C)C[C@@H]1NC(=O)[C@H](Cc2c[nH]cn2)NC(=O)[C@H](Cc2c[nH]c3ccccc23)NC(=O)[C@H](C)NC(=O)[C@@H](NC(=O)[C@@H](N)CC(=O)O)CSSC[C@@H](C(=O)N[C@H](C(N)=O)[C@@H](C)O)NC(=O)[C@H](C)NC(=O)[C@H](Cc2c[nH]c3ccccc23)NC(=O)[C@H](CC(C)C)NC(=O)[C@H](CCC(=O)O)NC(=O)CNC1=O [Compound 13] (H-DCAWHLGELWACT-NH2; disulfide 2-12 (inferred)) | 36.5 ± 15.6 | 
2 | NH2—(PEG)20—CH2CH2—CO—DCAWHLGELWACT—NH2 ([PEG20]DCAWHLGELWACT-NH2; disulfide 3-13 (inferred)) [Compound 15] |  | impaired peptide binding
3 | CC(C)C[C@@H]1NC(=O)[C@H](Cc2c[nH]cn2)NC(=O)[C@H](Cc2c[nH]c3ccccc23)NC(=O)[C@H](C)NC(=O)[C@@H](NC(=O)[C@H](CC(=O)O)NC(=O)[C@@H]2CCCN2C(=O)[C@@H]2CCCN2C(=O)[C@@H]2CCCN2C(=O)[C@@H]2CCCN2C(=O)[C@@H]2CCCN2C(=O)[C@@H]2CCCN2C(=O)CNC(=O)CNC(=O)[C@@H](N)CO)CSSC[C@@H](C(=O)N[C@H](C(N)=O)[C@@H](C)O)NC(=O)[C@H](Cc2c[nH]c3ccccc23)NC(=O)[C@H](C(C)C)NC(=O)[C@H](CC(C)C)NC(=O)[C@H](CCC(=O)O)NC(=O)CNC1=O [Compound 2] (H-SGGPPPPPPDCAWHLGELVWCT-NH2; disulfide 11-21 (inferred)) | 0.061 ± 0.033 | high affinity
4 | CC(C)C[C@H](NC(=O)[C@H](Cc1c[nH]cn1)NC(=O)[C@H](Cc1c[nH]c2ccccc12)NC(=O)[C@H](C)NC(=O)[C@H](C)NC(=O)[C@H](CC(=O)O)NC(=O)CCOCCOCCOCCOCCOCCOCCOCCOCCOCCOCCOCCOCCOCCOCCOCCOCCOCCOCCOCCOCCN)C(=O)NCC(=O)N[C@@H](CCC(=O)O)C(=O)N[C@@H](CC(C)C)C(=O)N[C@H](C(=O)N[C@@H](Cc1c[nH]c2ccccc12)C(=O)N[C@@H](C)C(=O)N[C@H](C(N)=O)[C@@H](C)O)C(C)C [Compound 16] (H-[PEG20]DAAWHLGELVWAT-NH2) | 10.7 ± 11.9 | impaired peptide binding

From patent US20230046947A1, “REACTIVE CONJUGATES” (Debiopharm Research & Manufacturing S.A., priority 2019, published 2023)
